Drawing on PMC3275140 (Journal of Natural Products, 2011), this text covers IC50 for three molecules.

Each structure is given as a SMILES string.

For the test, the system named is tubulin. The test can be described thus: Inhibition of tubulin polymerization. It counts as biochemical. The settings on record: read-out: Inhibition of tubulin polymerization IC50; pure protein assay.

The IC50 is the midpoint of a concentration-inhibition curve. For the molecule `COc1cc(/C=C\c2ccc(OC)c(OP(=O)(O)O)c2O)cc(OC)c1OC` [4a (Z), (Z)-1-[3′,4′,5′-Trimethoxyphenyl]-2-[2″-[hydroxy]-3″-[(disodium)phosphate]-4″-methoxyphenyl] ethene], the IC50 was greater than 40 µM.
`COc1ccc(/C=C\c2cc(OC)c(OC)c(OC)c2)c(OP(=O)(O)O)c1O` [8a (Z), (Z)-1-[3′,4′,5′-Trimethoxyphenyl]-2-[2″-[(disodium)phosphate]-3″-[hydroxy]-4″-methoxyphenyl] ethene]: the half-inhibitory concentration (IC50) is greater than 40 µM.
With `COc1cc(/C=C\c2ccc(OC)c(OP(=O)(O)O)c2OP(=O)(O)O)cc(OC)c1OC` [CA1P (Z), reference compound], the 50% inhibitory concentration (IC50) was greater than 40 µM.
